Experimental data from a compilation of properties of binary mixtures (doi:10.1016/j.molliq.2020.113538).

Experiment: xn = mol fraction of the nth substance listed
Settings: 101 kPa

CC[n+]1ccn(CCOC)c1.O=S(=O)([O-])C(F)(F)F + CCO
viscosity [mPa·s]
Settings	x1 = 0.0996	x1 = 0.1999	x1 = 0.2996	x1 = 0.3984	x1 = 0.4991	x1 = 0.603	x1 = 0.699	x1 = 0.797	x1 = 0.899	x1 = 1
288.15 K	2.654	4.54	–	12.13	19.22	28.7	43.6	62.8	84.4	121
293.15 K	2.374	4.01	6.66	10.37	16.43	23.77	–	–	–	92.5
298.15 K	2.139	–	5.84	8.96	13.98	19.98	29.12	–	52.2	72.5
303.15 K	–	–	5.16	7.82	11.97	17.28	24.38	32.04	42.9	–
308.15 K	1.757	2.916	4.59	6.88	10.34	–	20.67	–	–	47.3
313.15 K	1.603	2.644	4.11	6.09	9.01	12.4	17.99	–	28.85	39
318.15 K	1.467	2.409	3.72	5.43	7.9	11.16	15.6	–	23.82	32.59

CCO + CC[n+]1ccn(CCOC)c1.O=S(=O)([O-])C(F)(F)F
x2 = 0
Settings	viscosity [mPa·s]
288.15 K	1.319
293.15 K	1.195
298.15 K	1.086
303.15 K	0.989
308.15 K	0.903
313.15 K	0.825
318.15 K	0.757
